# Target: Calcium/calmodulin-dependent protein kinase type 1D (Homo sapiens) (UniProt Q8IU85)
# Sequence (Q8IU85 whole entry, looked up): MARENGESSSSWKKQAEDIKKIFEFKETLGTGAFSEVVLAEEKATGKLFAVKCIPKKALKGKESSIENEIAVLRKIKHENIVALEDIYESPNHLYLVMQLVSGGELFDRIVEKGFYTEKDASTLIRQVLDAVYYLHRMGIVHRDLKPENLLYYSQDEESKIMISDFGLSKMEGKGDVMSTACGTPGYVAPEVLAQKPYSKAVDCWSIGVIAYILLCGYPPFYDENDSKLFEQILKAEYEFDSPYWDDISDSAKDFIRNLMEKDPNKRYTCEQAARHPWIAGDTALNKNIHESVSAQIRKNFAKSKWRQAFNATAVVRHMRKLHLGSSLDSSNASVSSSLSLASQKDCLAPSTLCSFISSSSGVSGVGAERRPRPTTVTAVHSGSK
row,ΔTm,SMILES
1,0.6 °C,C[C@@H](N)[C@H]1CC[C@H](C(=O)Nc2ccncc2)CC1
2,1.4 °C,N#C/C(=C1/Nc2ccccc2S1)c1ccnc(NCCc2cccnc2)n1
3,0.3 °C,COc1ccc(CNC(=O)Nc2ncc([N+](=O)[O-])s2)cc1

# Target: Calcium/calmodulin-dependent protein kinase type II subunit delta (Homo sapiens) (UniProt Q13557)
row,ΔTm,SMILES
1,0.7 °C,C[C@@H](N)[C@H]1CC[C@H](C(=O)Nc2ccncc2)CC1
2,2.1 °C,N#C/C(=C1/Nc2ccccc2S1)c1ccnc(NCCc2cccnc2)n1
3,-0.2 °C,COc1ccc(CNC(=O)Nc2ncc([N+](=O)[O-])s2)cc1

# Target: Calcium/calmodulin-dependent protein kinase type II subunit gamma (Homo sapiens) (UniProt Q13555)
# Sequence (Q13555 whole entry): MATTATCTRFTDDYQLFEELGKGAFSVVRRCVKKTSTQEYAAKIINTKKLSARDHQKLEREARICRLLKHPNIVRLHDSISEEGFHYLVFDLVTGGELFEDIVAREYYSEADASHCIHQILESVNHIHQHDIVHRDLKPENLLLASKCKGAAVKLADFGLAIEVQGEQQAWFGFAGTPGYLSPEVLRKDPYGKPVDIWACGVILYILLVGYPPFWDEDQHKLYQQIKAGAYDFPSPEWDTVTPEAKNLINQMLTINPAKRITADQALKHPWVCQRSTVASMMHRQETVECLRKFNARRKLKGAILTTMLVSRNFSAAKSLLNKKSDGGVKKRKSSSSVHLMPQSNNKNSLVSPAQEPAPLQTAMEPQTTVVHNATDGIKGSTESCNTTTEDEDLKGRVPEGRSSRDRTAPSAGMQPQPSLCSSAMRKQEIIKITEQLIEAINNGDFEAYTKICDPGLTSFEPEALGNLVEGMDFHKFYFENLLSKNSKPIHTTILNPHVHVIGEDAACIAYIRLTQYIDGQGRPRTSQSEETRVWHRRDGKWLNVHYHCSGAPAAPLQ
row,ΔTm,SMILES
1,1 °C,C[C@@H](N)[C@H]1CC[C@H](C(=O)Nc2ccncc2)CC1
2,1 °C,N#C/C(=C1/Nc2ccccc2S1)c1ccnc(NCCc2cccnc2)n1
3,-0.2 °C,COc1ccc(CNC(=O)Nc2ncc([N+](=O)[O-])s2)cc1

# Target: Cyclin-dependent kinase 2 (Homo sapiens, UniProt P24941)
row,ΔTm,SMILES
1,0.5 °C,C[C@@H](N)[C@H]1CC[C@H](C(=O)Nc2ccncc2)CC1
2,6.3 °C,N#C/C(=C1/Nc2ccccc2S1)c1ccnc(NCCc2cccnc2)n1
3,0.8 °C,COc1ccc(CNC(=O)Nc2ncc([N+](=O)[O-])s2)cc1

# Target: Dual specificity protein kinase CLK2 (Homo sapiens) (UniProt P49760)
# Sequence (P49760 whole entry, looked up): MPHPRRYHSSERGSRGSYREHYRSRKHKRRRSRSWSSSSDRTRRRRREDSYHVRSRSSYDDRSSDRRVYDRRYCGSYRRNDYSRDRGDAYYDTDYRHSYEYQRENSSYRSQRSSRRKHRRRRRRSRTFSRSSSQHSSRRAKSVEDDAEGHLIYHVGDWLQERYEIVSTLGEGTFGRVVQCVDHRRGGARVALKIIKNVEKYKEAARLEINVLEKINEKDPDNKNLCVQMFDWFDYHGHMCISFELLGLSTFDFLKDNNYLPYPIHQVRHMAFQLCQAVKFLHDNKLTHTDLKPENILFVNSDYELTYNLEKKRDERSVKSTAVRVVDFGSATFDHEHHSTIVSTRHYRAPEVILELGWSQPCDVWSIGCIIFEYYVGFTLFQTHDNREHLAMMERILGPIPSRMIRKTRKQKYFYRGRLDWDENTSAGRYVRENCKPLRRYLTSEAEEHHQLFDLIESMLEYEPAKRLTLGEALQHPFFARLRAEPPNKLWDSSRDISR
row,ΔTm,SMILES
1,0.2 °C,C[C@@H](N)[C@H]1CC[C@H](C(=O)Nc2ccncc2)CC1
2,4.4 °C,N#C/C(=C1/Nc2ccccc2S1)c1ccnc(NCCc2cccnc2)n1
3,-0.9 °C,COc1ccc(CNC(=O)Nc2ncc([N+](=O)[O-])s2)cc1

# Target: Death-associated protein kinase 3 (Homo sapiens) (UniProt O43293)
# Sequence (O43293 whole entry, looked up): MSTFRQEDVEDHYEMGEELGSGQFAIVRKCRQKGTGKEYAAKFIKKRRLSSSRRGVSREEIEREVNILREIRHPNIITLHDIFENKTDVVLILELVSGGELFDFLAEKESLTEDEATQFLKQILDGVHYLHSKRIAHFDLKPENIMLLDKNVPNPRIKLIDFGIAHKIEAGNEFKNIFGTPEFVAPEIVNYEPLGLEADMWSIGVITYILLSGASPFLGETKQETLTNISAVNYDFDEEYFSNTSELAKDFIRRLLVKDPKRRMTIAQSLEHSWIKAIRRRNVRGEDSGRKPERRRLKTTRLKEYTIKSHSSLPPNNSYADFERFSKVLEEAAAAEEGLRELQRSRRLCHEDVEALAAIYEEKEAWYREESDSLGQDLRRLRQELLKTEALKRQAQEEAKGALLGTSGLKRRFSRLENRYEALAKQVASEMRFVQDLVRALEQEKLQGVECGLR
row,SMILES,ΔTm
1,C[C@@H](N)[C@H]1CC[C@H](C(=O)Nc2ccncc2)CC1,1 °C
2,N#C/C(=C1/Nc2ccccc2S1)c1ccnc(NCCc2cccnc2)n1,1.6 °C
3,COc1ccc(CNC(=O)Nc2ncc([N+](=O)[O-])s2)cc1,-0.9 °C

# Target: T1, Myotonin-protein kinase (Homo sapiens) (UniProt Q09013)
# T1 sequence (whole entry): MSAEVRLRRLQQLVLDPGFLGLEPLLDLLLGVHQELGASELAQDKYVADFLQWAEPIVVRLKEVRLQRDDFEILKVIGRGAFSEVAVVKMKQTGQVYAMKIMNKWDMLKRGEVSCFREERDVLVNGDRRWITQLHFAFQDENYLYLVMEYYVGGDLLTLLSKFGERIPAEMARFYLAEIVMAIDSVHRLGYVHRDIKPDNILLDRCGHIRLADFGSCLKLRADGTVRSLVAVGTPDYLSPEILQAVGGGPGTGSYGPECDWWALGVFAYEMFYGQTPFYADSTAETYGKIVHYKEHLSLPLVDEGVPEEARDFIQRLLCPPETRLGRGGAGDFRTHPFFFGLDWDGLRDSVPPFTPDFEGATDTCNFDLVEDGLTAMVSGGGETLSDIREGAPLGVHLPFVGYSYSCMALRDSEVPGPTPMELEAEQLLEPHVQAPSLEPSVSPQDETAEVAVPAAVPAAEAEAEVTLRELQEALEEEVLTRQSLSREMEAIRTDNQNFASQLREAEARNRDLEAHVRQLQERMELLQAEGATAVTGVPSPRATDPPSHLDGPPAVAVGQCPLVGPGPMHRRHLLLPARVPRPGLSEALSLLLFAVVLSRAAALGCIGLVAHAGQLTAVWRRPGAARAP
row,ΔTm,SMILES
1,0.3 °C,C[C@@H](N)[C@H]1CC[C@H](C(=O)Nc2ccncc2)CC1
2,6 °C,N#C/C(=C1/Nc2ccccc2S1)c1ccnc(NCCc2cccnc2)n1
3,0.1 °C,COc1ccc(CNC(=O)Nc2ncc([N+](=O)[O-])s2)cc1

# Target: Dual specificity mitogen-activated protein kinase kinase 2 (Homo sapiens, UniProt P36507)
row,ΔTm,SMILES
1,-0.4 °C,C[C@@H](N)[C@H]1CC[C@H](C(=O)Nc2ccncc2)CC1
2,3.8 °C,N#C/C(=C1/Nc2ccccc2S1)c1ccnc(NCCc2cccnc2)n1
3,-0.5 °C,COc1ccc(CNC(=O)Nc2ncc([N+](=O)[O-])s2)cc1

# Target: Mitogen-activated protein kinase 11 (Homo sapiens, UniProt Q15759)
row,ΔTm,SMILES
1,0 °C,C[C@@H](N)[C@H]1CC[C@H](C(=O)Nc2ccncc2)CC1
2,2.4 °C,N#C/C(=C1/Nc2ccccc2S1)c1ccnc(NCCc2cccnc2)n1
3,1 °C,COc1ccc(CNC(=O)Nc2ncc([N+](=O)[O-])s2)cc1

# Target: Serine/threonine-protein kinase 26 (Homo sapiens) (UniProt Q9P289)
# Sequence (Q9P289 2-416 limits assumed): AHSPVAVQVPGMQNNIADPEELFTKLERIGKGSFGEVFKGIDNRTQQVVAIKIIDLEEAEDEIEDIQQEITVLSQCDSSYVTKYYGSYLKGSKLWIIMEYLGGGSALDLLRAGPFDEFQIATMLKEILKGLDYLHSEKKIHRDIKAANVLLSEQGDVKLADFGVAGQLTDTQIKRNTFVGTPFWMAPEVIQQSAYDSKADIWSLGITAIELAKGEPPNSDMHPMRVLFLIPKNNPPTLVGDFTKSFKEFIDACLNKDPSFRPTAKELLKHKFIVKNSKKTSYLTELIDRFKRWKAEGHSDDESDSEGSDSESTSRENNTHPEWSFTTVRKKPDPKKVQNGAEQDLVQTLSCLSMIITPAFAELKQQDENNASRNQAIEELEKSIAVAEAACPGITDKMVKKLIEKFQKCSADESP
row,ΔTm,SMILES
1,0.2 °C,C[C@@H](N)[C@H]1CC[C@H](C(=O)Nc2ccncc2)CC1
2,2 °C,N#C/C(=C1/Nc2ccccc2S1)c1ccnc(NCCc2cccnc2)n1
3,-0.3 °C,COc1ccc(CNC(=O)Nc2ncc([N+](=O)[O-])s2)cc1

# Target: Serine/threonine-protein kinase OSR1 (Homo sapiens) (UniProt O95747)
# Sequence (O95747 2-527 limits assumed): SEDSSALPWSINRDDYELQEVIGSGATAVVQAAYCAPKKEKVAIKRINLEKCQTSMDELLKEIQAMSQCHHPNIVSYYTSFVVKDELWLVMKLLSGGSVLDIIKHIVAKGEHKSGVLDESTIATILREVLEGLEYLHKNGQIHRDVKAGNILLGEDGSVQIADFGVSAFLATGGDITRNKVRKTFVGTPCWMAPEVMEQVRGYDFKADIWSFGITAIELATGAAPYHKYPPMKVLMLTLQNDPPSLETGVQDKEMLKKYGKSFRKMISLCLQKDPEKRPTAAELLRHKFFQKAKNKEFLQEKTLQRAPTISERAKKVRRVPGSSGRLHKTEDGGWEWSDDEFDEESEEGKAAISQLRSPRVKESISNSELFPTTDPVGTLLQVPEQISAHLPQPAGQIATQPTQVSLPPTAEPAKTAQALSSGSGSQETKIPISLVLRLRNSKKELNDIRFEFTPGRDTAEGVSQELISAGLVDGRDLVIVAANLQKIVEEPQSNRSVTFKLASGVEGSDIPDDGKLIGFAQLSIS
row,ΔTm,SMILES
1,-0.4 °C,C[C@@H](N)[C@H]1CC[C@H](C(=O)Nc2ccncc2)CC1
2,1.4 °C,N#C/C(=C1/Nc2ccccc2S1)c1ccnc(NCCc2cccnc2)n1
3,1.6 °C,COc1ccc(CNC(=O)Nc2ncc([N+](=O)[O-])s2)cc1

# Target: Serine/threonine-protein kinase PAK 5 (Homo sapiens) (UniProt Q9P286)
# Sequence (Q9P286 whole entry, looked up): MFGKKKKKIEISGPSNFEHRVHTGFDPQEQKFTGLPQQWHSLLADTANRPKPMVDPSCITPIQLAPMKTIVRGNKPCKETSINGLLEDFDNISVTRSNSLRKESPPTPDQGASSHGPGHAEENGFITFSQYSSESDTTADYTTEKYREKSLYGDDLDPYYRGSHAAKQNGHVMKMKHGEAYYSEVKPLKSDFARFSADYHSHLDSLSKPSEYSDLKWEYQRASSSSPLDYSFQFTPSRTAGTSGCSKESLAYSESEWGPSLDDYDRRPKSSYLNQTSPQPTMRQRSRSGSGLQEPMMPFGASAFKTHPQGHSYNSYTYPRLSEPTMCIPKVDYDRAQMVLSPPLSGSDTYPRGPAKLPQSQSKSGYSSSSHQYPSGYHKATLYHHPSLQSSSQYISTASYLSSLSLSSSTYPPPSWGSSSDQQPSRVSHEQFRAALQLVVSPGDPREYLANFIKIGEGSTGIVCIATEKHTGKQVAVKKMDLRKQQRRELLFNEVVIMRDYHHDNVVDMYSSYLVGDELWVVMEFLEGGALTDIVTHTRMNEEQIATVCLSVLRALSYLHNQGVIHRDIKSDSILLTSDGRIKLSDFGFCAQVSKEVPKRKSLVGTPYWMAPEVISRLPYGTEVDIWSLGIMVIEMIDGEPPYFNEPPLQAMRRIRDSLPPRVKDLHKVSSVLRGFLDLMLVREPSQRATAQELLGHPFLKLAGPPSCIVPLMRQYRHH
row,ΔTm,SMILES
1,0.1 °C,C[C@@H](N)[C@H]1CC[C@H](C(=O)Nc2ccncc2)CC1
2,1.8 °C,N#C/C(=C1/Nc2ccccc2S1)c1ccnc(NCCc2cccnc2)n1
3,0.7 °C,COc1ccc(CNC(=O)Nc2ncc([N+](=O)[O-])s2)cc1

# Target: Serine/threonine-protein kinase pim-1 (Homo sapiens) (UniProt P11309)
# Sequence (P11309 whole entry, looked up): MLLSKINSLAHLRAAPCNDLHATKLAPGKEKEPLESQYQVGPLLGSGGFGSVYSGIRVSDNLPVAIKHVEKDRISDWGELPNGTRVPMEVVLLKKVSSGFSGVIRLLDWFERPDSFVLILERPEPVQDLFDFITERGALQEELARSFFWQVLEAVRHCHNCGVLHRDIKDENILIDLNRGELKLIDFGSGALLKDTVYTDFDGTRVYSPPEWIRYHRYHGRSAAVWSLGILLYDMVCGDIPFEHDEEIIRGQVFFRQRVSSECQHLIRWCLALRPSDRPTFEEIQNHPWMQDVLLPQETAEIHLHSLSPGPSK
row,ΔTm,SMILES
1,0 °C,C[C@@H](N)[C@H]1CC[C@H](C(=O)Nc2ccncc2)CC1
2,10 °C,N#C/C(=C1/Nc2ccccc2S1)c1ccnc(NCCc2cccnc2)n1
3,1.1 °C,COc1ccc(CNC(=O)Nc2ncc([N+](=O)[O-])s2)cc1

# Target: Serine/threonine-protein kinase pim-2 (Homo sapiens, UniProt Q9P1W9)
# Sequence (Q9P1W9 whole entry, looked up): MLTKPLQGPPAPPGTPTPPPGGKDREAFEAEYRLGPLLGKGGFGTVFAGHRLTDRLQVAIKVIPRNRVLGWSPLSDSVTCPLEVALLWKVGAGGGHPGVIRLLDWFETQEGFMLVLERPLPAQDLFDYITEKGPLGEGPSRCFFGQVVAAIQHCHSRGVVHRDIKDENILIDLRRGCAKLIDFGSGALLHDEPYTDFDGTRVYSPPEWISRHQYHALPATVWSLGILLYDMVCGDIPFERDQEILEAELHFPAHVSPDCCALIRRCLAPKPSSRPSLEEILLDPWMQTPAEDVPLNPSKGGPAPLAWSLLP
row,ΔTm,SMILES
1,0.6 °C,C[C@@H](N)[C@H]1CC[C@H](C(=O)Nc2ccncc2)CC1
2,7.4 °C,N#C/C(=C1/Nc2ccccc2S1)c1ccnc(NCCc2cccnc2)n1
3,0.2 °C,COc1ccc(CNC(=O)Nc2ncc([N+](=O)[O-])s2)cc1

# Target: Serine/threonine-protein kinase pim-3 (Homo sapiens) (UniProt Q86V86)
row,ΔTm,SMILES
1,1.3 °C,C[C@@H](N)[C@H]1CC[C@H](C(=O)Nc2ccncc2)CC1
2,10.9 °C,N#C/C(=C1/Nc2ccccc2S1)c1ccnc(NCCc2cccnc2)n1
3,1.5 °C,COc1ccc(CNC(=O)Nc2ncc([N+](=O)[O-])s2)cc1

# Target: T2, Serine/threonine-protein kinase 17A (Homo sapiens) (UniProt Q9UEE5)
# T2 sequence (whole entry): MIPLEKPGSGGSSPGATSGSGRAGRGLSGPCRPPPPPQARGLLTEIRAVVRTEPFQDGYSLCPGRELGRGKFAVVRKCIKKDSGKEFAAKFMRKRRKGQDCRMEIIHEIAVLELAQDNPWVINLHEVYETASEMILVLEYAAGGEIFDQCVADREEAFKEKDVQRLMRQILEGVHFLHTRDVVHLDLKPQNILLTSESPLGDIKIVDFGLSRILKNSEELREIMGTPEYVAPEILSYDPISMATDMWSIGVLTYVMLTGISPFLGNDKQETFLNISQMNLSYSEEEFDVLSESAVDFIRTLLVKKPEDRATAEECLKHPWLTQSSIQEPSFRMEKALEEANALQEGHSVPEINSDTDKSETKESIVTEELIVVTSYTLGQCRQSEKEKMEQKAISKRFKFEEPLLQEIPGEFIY
row,ΔTm,SMILES
1,1.3 °C,C[C@@H](N)[C@H]1CC[C@H](C(=O)Nc2ccncc2)CC1
2,4.7 °C,N#C/C(=C1/Nc2ccccc2S1)c1ccnc(NCCc2cccnc2)n1
3,0.5 °C,COc1ccc(CNC(=O)Nc2ncc([N+](=O)[O-])s2)cc1

# Target: Serine/threonine-protein kinase 26 (Homo sapiens) (UniProt Q9P289)
# Remark: another data set of the same source
row,ΔTm,SMILES
1,0.3 °C,C[C@@H](N)[C@H]1CC[C@H](C(=O)Nc2ccncc2)CC1
2,0.9 °C,N#C/C(=C1/Nc2ccccc2S1)c1ccnc(NCCc2cccnc2)n1
3,1.5 °C,COc1ccc(CNC(=O)Nc2ncc([N+](=O)[O-])s2)cc1

# Target: T3, Lymphokine-activated killer T-cell-originated protein kinase (Homo sapiens) (UniProt Q96KB5)
# T3 sequence (whole entry): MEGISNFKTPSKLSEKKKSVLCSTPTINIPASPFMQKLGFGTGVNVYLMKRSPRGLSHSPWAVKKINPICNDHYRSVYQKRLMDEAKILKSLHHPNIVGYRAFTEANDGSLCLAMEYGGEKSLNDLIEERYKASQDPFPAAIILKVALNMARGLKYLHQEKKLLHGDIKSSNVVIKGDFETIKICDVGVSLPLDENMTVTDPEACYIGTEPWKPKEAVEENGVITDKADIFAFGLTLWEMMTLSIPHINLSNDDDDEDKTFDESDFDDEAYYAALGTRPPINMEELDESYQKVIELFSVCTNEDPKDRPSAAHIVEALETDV
row,SMILES,ΔTm
1,C[C@@H](N)[C@H]1CC[C@H](C(=O)Nc2ccncc2)CC1,0.9 °C
2,N#C/C(=C1/Nc2ccccc2S1)c1ccnc(NCCc2cccnc2)n1,0.8 °C
3,COc1ccc(CNC(=O)Nc2ncc([N+](=O)[O-])s2)cc1,0.3 °C

# Target: T4, Serine/threonine-protein kinase VRK1 (Homo sapiens) (UniProt Q99986)
# T4 sequence (whole entry): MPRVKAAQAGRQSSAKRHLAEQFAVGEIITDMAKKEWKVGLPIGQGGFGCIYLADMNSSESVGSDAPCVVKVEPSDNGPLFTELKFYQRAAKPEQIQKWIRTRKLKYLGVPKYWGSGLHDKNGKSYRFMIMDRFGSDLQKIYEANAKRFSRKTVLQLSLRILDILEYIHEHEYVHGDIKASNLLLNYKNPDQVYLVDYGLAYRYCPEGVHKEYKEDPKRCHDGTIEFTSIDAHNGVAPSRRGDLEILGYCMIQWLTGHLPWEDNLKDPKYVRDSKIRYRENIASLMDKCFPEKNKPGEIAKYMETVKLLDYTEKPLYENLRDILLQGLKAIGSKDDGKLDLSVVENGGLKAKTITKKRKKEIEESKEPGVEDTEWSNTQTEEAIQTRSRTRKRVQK
row,ΔTm,SMILES
1,0.9 °C,C[C@@H](N)[C@H]1CC[C@H](C(=O)Nc2ccncc2)CC1
2,1.3 °C,N#C/C(=C1/Nc2ccccc2S1)c1ccnc(NCCc2cccnc2)n1
3,-0.5 °C,COc1ccc(CNC(=O)Nc2ncc([N+](=O)[O-])s2)cc1

# Target: Serine/threonine-protein kinase 25 (Homo sapiens) (UniProt O00506)
# Sequence (O00506 whole entry, looked up): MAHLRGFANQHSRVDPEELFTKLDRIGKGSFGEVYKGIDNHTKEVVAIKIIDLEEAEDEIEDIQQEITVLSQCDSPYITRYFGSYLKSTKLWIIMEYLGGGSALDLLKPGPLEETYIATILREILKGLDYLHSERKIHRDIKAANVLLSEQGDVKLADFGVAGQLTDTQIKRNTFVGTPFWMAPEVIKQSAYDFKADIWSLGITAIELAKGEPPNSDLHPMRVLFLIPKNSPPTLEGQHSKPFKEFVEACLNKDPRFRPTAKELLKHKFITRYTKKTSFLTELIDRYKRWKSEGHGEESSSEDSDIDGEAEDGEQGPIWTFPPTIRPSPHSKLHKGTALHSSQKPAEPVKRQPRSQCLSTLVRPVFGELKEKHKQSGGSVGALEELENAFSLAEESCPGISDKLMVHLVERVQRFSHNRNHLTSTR
row,ΔTm,SMILES
1,0 °C,C[C@@H](N)[C@H]1CC[C@H](C(=O)Nc2ccncc2)CC1
2,0.8 °C,N#C/C(=C1/Nc2ccccc2S1)c1ccnc(NCCc2cccnc2)n1
3,0.1 °C,COc1ccc(CNC(=O)Nc2ncc([N+](=O)[O-])s2)cc1
